The results in this text go back to article PMC13252604, “First Generation Proteolysis Targeting Chimeras (PROTACs) for the Treatment of Progeria” (Advanced Science, 2026).

The subject of series [1] is HGADFN167 Lmna^G608G/G608G fibroblasts. Nature of the series: Transmission electron microscopy of mitochondria. The class given is cell-based, human. To be noted: HGADFN167, 5 µM, 20 days. The protocol: Supporting Figure S6. Basal respiration and electronic microscopy analysis of mitochondria in wild type and HGPS cells. (A) PROTAC 2 increases basal respiration (OCR, oxygen consumption rate) in human progeroid cells. Bar graphs show mean±sem of 2 independent experiments performed in duplicate. HGADFN167 LmnaG608G/G608G (progeroid) and HGADFN168 Lmna+/+ (wild type) fibroblasts, provided by the Progeria Research Foundation, were incubated with vehicle or 2 (5 µM) for 20 days. *, p<0.05 vs G608G cells, one-way ANOVA. […]
Mitochondria were evaluated for the integrity of the membrane, matrix and cristae, and were classified as mitochondria with normal morphology (black arrows) or damaged mitochondria (red arrows, with alterations in the membrane, presence of inclusions in the matrix and concentric cristae or “onion-like” mitochondria). […]
Cells were harvested by trypsin, centrifuged and washed with PBS. […] The mixture was then allowed to incubate for 30min at 37 °C in the dark and samples were finally analysed by FACScalibur (Becton Dickinson) flow cytometer […]
Cells were incubated for 1 h in 1% OsO4 at room temperature and then thoroughly washed with milliQ water. […] The samples were analysed and examined in the transmission electron microscope JEM 1010 at 80 […]

Series [2] has as its system Lmna^G609G/G609G fibroblasts. Nature of the series: Immunocytofluorescence (Ki‐67, lamin A/C) in mouse progeroid cells. The class given is cell-based. To be noted: 5 µM. The protocol:
Confocal fluorescence microscopy images are representative of 2 independent experiments. […] Representative cropped immunoblots are shown. […] MW, molecular weight (in kDa) markers. (C) PROTAC 2 decreases senescence‐associated β‐galactosidase (SA‐βgal) activity, interleukin (IL) 1α and p16 senescent markers. Lmna^G609G/G609G (G609G) or Lmna^+/+ (WT) fibroblasts were incubated with vehicle or compound 2 (5 µM). […] Data were analysed using one‐way ANOVA followed by Dunnett's post–hoc test. ^*, p < 0.05; ^**, p < 0.01, ^***, p < 0.001, ^****, p < 0.0001 vs G609G cells. […]
compound exposure. […]
TBS-T and proteins were visualized by quimioluminiscence (GE Healthcare […]
For immunocytofluorescence studies, mouse or human progeroid cells previously incubated with compound of interest or DMSO were seeded at a density of […] or 1.5 x 10^4 cells/well over 12 mm diameter slide covers respectively in a 12-well plate and were incubated for 24 h at 37 ᵒC with compound of interest. Cells were fixed with 4% formaldehyde (Ki67, pH2AX) or cold methanol (Lamin A/C, H3K9Me3) from Sigma-Aldrich during 20 min and permeabilized with PBS containing 0.2% Triton X-100 (PBS-T, Sigma-Aldrich). Then, cells were blocked with TBS 2% BSA during 30 min at rt, followed by incubation o.n. with anti-lamin A/C (Santa Cruz Biotechnology, SC-376248, […]
at 4 °C. After that, cells were washed with TBS (1x) and incubated in absence of light for 1 h with fluorescent goat anti-mouse (1:500, Alexa Fluor 488, Life Technologies) diluted in TBS with 2% BSA. Finally, cells were washed with TBS (2x) and the slide cover was carefully mounted with Immumount (Thermo Scientific). The visualization was carried out using confocal microscopy (Olympus IX83) equipped with a 40X oil immersion lens and the appropriate excitation and emission filters at the microscopy UCM facilities. […]
7. Senescence-associated (SA) β-galactosidase activity. […]

Series [3] is described as follows: Solubility in phosphate buffer solution. The class given is physicochemical. To be noted: aqueous buffer; phosphate buffer solution (PBS, pH = 7.5).

≈ marks a conversion by molar mass, not a printed value.

For orientation: solubility means the dissolved amount per volume that the medium holds. A low value points to a poorly soluble substance. In the case of `CC1(C)Oc2cc3oc(=O)ccc3cc2C[C@@H]1OC(=O)CCCCCNc1cccc2c1C(=O)N(C1CCC(=O)NC1=O)C2=O` (some centres unmarked) [compound 2], in series [1], the “number of healthy mitochondria (electron microscopy)” value is listed as “enhances”. For the same molecule, in series [2], the “cell proliferation (Ki‐67)” value is on record as “significantly increases cell proliferation”, the “nuclear cell membrane thickness” value was “decreases nuclear cell membrane thickness” and the “progerin accumulation in the nuclear membrane” value is “decreases progerin accumulation in the nuclear membrane”. The solubility in series [3] amounted to 0.5 µM (≈ 0.308 µg/mL).
